The source made the active and inactive calls. No cut-off for these calls is given here.
Tests used:
[1] = tested on: U-937; experiment: Induction of apoptosis in human U937 cells assessed as increase in caspase 8-mediated cleavage of IETD-pNA at 30 uM after 24 hrs; type: functional, cell-based
[2] = tested on: U-937; experiment: Induction of apoptosis in human U937 cells assessed as cleavage of procaspase 7 at 10 to 30 uM after 24 hrs by Western blot analysis; type: functional, cell-based
[3] = tested on: HL-60; experiment: Induction of apoptosis in human HL60 cells assessed as cleavage of procaspase 7 at 10 to 30 uM after 24 hrs by Western blot analysis; type: functional, cell-based
[4] = tested on: U-937; experiment: Induction of apoptosis in human U937 cells assessed as cleavage of procaspase 3 at 10 to 30 uM after 24 hrs by Western blot analysis; type: functional, cell-based
[5] = tested on: MOLT-3; experiment: Induction of apoptosis in human MOLT3 cells assessed as increase in caspase 8-mediated cleavage of IETD-pNA at 30 uM after 24 hrs; type: functional, cell-based
[6] = tested on: MOLT-3; experiment: Cytotoxicity against human MOLT3 cells assessed as morphological changes at 10 uM after 24 hrs by inverted phase-contrast microscopic analysis; type: functional, cell-based
[7] = tested on: HL-60; experiment: Cytotoxicity against human HL60 cells assessed as morphological changes at 10 uM after 24 hrs by inverted phase-contrast microscopic analysis; type: functional, cell-based
[8] = tested on: U-937; experiment: Induction of apoptosis in human U937 cells assessed as increase in chromatin condensation at 10 uM after 24 hrs by Hoechst staining-based flow cytometric analysis; type: functional, cell-based
[9] = tested on: U-937; experiment: Induction of apoptosis in human U937 cells assessed as cleavage of procaspase 6 at 10 to 30 uM after 24 hrs by Western blot analysis; type: functional, cell-based
[10] = tested on: HL-60; experiment: Induction of apoptosis in human HL60 cells assessed as cleavage of procaspase 9 at 10 to 30 uM after 24 hrs by Western blot analysis; type: functional, cell-based
[11] = tested on: HL-60; experiment: Induction of apoptosis in human HL60 cells assessed as increase in caspase 3/7-mediated cleavage of DEVD-pNA at 30 uM after 24 hrs relative to control; type: functional
[12] = tested on: HL-60; experiment: Induction of apoptosis in human HL60 cells assessed as cleavage of procaspase 6 at 10 to 30 uM after 24 hrs by Western blot analysis; type: functional, cell-based
[13] = tested on: MOLT-3; experiment: Induction of apoptosis in human MOLT3 cells assessed as […] hydrolysis of chromatin at 10 uM after 24 hrs by agarose gel electrophoretic analysis; type: functional, cell-based
[14] = tested on: U-937; experiment: Cytotoxicity against human U937 cells after 72 hrs by MTT assay; type: functional, cell-based; details: for IC50: U-937, 72 h
[15] = tested on: MOLT-3; experiment: Induction of apoptosis in human MOLT3 cells assessed as increase in chromatin condensation at 10 uM after 24 hrs by Hoechst staining-based flow cytometric analysis; type: functional, cell-based
[16] = tested on: HL-60; experiment: Induction of apoptosis in human HL60 cells assessed as increase in apoptotic cells at 30 uM after 24 hrs by propidium iodide staining-based flow cytometric analysis relative to control; type: functional
[17] = tested on: U-937; experiment: Induction of apoptosis in human U937 cells assessed as increase in caspase 9-mediated cleavage of LEHD-pNA at 30 uM after 24 hrs; type: functional, cell-based
[18] = tested on: U-937; experiment: Induction of apoptosis in human U937 cells assessed as increase in apoptotic cells at 30 uM after 24 hrs by propidium iodide staining-based flow cytometric analysis relative to control; type: functional
[19] = tested on: HL-60; experiment: Cytotoxicity against human HL60 cells after 72 hrs by MTT assay; type: functional, cell-based; details: for IC50: HL-60, 72 h
[20] = tested on: HL-60; experiment: Induction of apoptosis in human HL60 cells assessed as increase in chromatin condensation at 10 uM after 24 hrs by Hoechst staining-based flow cytometric analysis; type: functional, cell-based
[21] = tested on: HL-60; experiment: Induction of apoptosis in human HL60 cells assessed as increase in caspase 9-mediated cleavage of LEHD-pNA at 30 uM after 24 hrs; type: functional, cell-based
[22] = tested on: HL-60; experiment: Induction of apoptosis in human HL60 cells assessed as cleavage of procaspase 3 at 10 to 30 uM after 24 hrs by Western blot analysis; type: functional, cell-based
[23] = tested on: U-937; experiment: Induction of apoptosis in human U937 cells assessed as cleavage of procaspase 9 at 10 to 30 uM after 24 hrs by Western blot analysis; type: functional, cell-based
[24] = tested on: U-937; experiment: Induction of apoptosis in human U937 cells assessed as change in Bcl-2 protein level at 10 to 30 uM after 24 hrs by Western blot analysis; type: functional, cell-based
[25] = tested on: U-937; experiment: Induction of apoptosis in human U937 cells assessed as release of cytochrome c release from mitochondria at 10 to 30 uM after 24 hrs by Western blot analysis; type: functional, cell-based
[26] = tested on: HL-60; experiment: Induction of apoptosis in human HL60 cells assessed as decrease in ROS level up to 12 hrs by H2-DCF-DA dye-based flow cytometric analysis; type: functional, cell-based
[27] = tested on: MOLT-3; experiment: Cytotoxicity against human MOLT3 cells after 72 hrs by MTT assay; type: functional, cell-based; details: for IC50: MOLT-3, 72 h
[28] = tested on: HL-60; experiment: Induction of apoptosis in human HL60 cells assessed as […] hydrolysis of chromatin at 10 uM after 24 hrs by agarose gel electrophoretic analysis; type: functional, cell-based
[29] = tested on: U-937; experiment: Induction of apoptosis in human U937 cells assessed as […] hydrolysis of chromatin at 10 uM after 24 hrs by agarose gel electrophoretic analysis; type: functional, cell-based
[30] = tested on: HL-60; experiment: Induction of apoptosis in human HL60 cells assessed as increase in hypodiploid cells at 30 uM after 24 hrs by propidium iodide staining-based flow cytometric analysis in presence of 100 uM caspase inhibition Z-VAD-fmk; type: functional, cell-based
[31] = tested on: MCF7; experiment: Cytotoxicity against human MCF7 cells assessed as morphological changes at 10 uM after 24 hrs by inverted phase-contrast microscopic analysis; type: functional, cell-based
[32] = tested on: HL-60; experiment: Induction of apoptosis in human HL60 cells assessed as increase in caspase 8-mediated cleavage of IETD-pNA at 30 uM after 24 hrs; type: functional, cell-based
[33] = tested on: U-937; experiment: Induction of apoptosis in human U937 cells assessed as increase in caspase 3/7-mediated cleavage of DEVD-pNA at 30 uM after 24 hrs relative to control; type: functional
[34] = tested on: HL-60; experiment: Induction of apoptosis in human HL60 cells assessed as decrease in Bid protein level at 10 to 30 uM after 24 hrs by Western blot analysis; type: functional, cell-based
[35] = tested on: MCF7; experiment: Cytotoxicity against human MCF7 cells after 72 hrs by MTT assay; type: functional, cell-based; details: for IC50: MCF7, 72 h
[36] = tested on: HL-60; experiment: Induction of apoptosis in human HL60 cells assessed as release of cytochrome c release from mitochondria at 10 to 30 uM after 24 hrs by Western blot analysis; type: functional, cell-based
[37] = tested on: U-937; experiment: Cytotoxicity against human U937 cells assessed as reduction in cell number at 10 uM after 24 hrs by inverted phase-contrast microscopic analysis; type: functional, cell-based
[38] = tested on: MOLT-3; experiment: Induction of apoptosis in human MOLT3 cells assessed as increase in caspase 9-mediated cleavage of LEHD-pNA at 30 uM after 24 hrs; type: functional, cell-based
[39] = tested on: U-937; experiment: Cytotoxicity against human U937 cells assessed as morphological changes at 10 uM after 24 hrs by inverted phase-contrast microscopic analysis; type: functional, cell-based
[40] = tested on: U-937; experiment: Induction of apoptosis in human U937 cells assessed as decrease in Bid protein level at 10 to 30 uM after 24 hrs by Western blot analysis; type: functional, cell-based
[41] = tested on: MOLT-3; experiment: Induction of apoptosis in human MOLT3 cells assessed as increase in caspase 3/7-mediated cleavage of DEVD-pNA at 30 uM after 24 hrs relative to control; type: functional
[42] = tested on: HL-60; experiment: Induction of apoptosis in human HL60 cells assessed as change in Bcl-2 protein level at 10 to 30 uM after 24 hrs by Western blot analysis; type: functional, cell-based
[43] = tested on: U-937; experiment: Induction of apoptosis in human U937 cells assessed as increase in Bax protein level at 10 to 30 uM after 24 hrs by Western blot analysis; type: functional, cell-based
[44] = tested on: HL-60; experiment: Cytotoxicity against human HL60 cells assessed as reduction in cell number at 10 uM after 24 hrs by inverted phase-contrast microscopic analysis; type: functional, cell-based
[45] = tested on: HL-60; experiment: Cell cycle in human HL60 cells at 30 uM after 24 hrs by flow cytometric analysis in presence of 100 uM caspase inhibition Z-VAD-fmk; type: functional, cell-based
[46] = tested on: HL-60; experiment: Induction of apoptosis in human HL60 cells assessed as increase in Bax protein level at 10 to 30 uM after 24 hrs by Western blot analysis; type: functional, cell-based
[47] = tested on: MOLT-3; experiment: Cytotoxicity against human MOLT3 cells assessed as reduction in cell number at 10 uM after 24 hrs by inverted phase-contrast microscopic analysis; type: functional, cell-based

Compound: CC(C)[C@H]1CC[C@H](C)C[C@@H]1O[C@@H]1O[C@H](CO[C@@H]2O[C@H](COC(=O)c3ccc(Br)cc3)[C@@H](OC(=O)c3ccc(Br)cc3)[C@H](O)[C@H]2O)[C@@H](O)[C@H](O)[C@H]1O
- Activity [1]: Active
- Activity [2]: Active
- Activity [3]: Active
- Activity [4]: Active
- Activity [5]: Active
- Activity [6]: Active
- Activity [7]: Active
- Activity [8]: Active
- Activity [9]: Active
- Activity [10]: Active
- fold change (FC) [11]: >7
- Activity [12]: Active
- Activity [13]: Active
- Activity [14]: Dose-dependent effect
- IC50 [14]: 14.1 µM
- Activity [15]: Active
- Activity [16]: 56.9%
- Activity [17]: Active
- Activity [18]: 23.2%
- Activity [19]: Dose-dependent effect
- IC50 [19]: 14.9 µM
- Activity [20]: Active
- Activity [21]: Active
- Activity [22]: Active
- Activity [23]: Active
- Activity [24]: inactive
- Activity [25]: Active
- Activity [26]: inactive
- Activity [27]: Dose-dependent effect
- IC50 [27]: 12.6 µM
- Activity [28]: Active
- Activity [29]: Active
- Activity [30]: inactive
- Activity [31]: Active
- Activity [32]: Active
- fold change (FC) [33]: >7
- Activity [34]: Active
- Activity [35]: Dose-dependent effect
- IC50 [35]: 16 µM
- Activity [36]: Active
- Activity [37]: Active
- Activity [38]: Active
- Activity [39]: Active
- Activity [40]: Active
- fold change (FC) [41]: >7
- Activity [42]: inactive
- Activity [43]: Active
- Activity [44]: Active
- Activity [45]: inactive
- Activity [46]: Active
- Activity [47]: Active

Compound: CC(C)[C@@H]1CC[C@@H](C)C[C@H]1OC1O[C@H](CO[C@@H]2O[C@H](COC(=O)c3ccc(Br)cc3)[C@@H](OC(=O)c3ccc(Br)cc3)[C@H](O)[C@H]2O)[C@@H](O)[C@H](O)[C@H]1O (single isomer, unassigned)
- Activity [6]: Active
- Activity [7]: Active
- Activity [8]: Active
- Activity [13]: Active
- Activity [14]: Dose-dependent effect
- IC50 [14]: 5.8 µM
- Activity [15]: Active
- Activity [19]: Dose-dependent effect
- IC50 [19]: 7 µM
- Activity [20]: Active
- Activity [27]: Dose-dependent effect
- IC50 [27]: 10.6 µM
- Activity [28]: Active
- Activity [29]: Active
- Activity [31]: Active
- Activity [35]: Dose-dependent effect
- IC50 [35]: 12.1 µM
- Activity [37]: Active
- Activity [39]: Active
- Activity [44]: Active
- Activity [47]: Active
